Source: patent US20230227392A1, “A APPLICATION OF CYATHANE DITERPENOIDS IN PREPARATION OF DRUGS FOR TREATING NEUROINFLAMMATION” (Northwest A&F University, priority 2022, published 2023)
“Also recorded” adds a separate entry of the source.

Key:
Type in all cases: cell-based, mouse
[1] = system: LPS-induced BV-2 microglia; test: Inhibition of nitric oxide (NO) production, Griess method; settings: 1 μg/mL LPS + 10 μM compound, 24 h, FIG. 2
Method: The mouse microglia (BV-2) were cultured in the DMEM culture medium containing 10% of fetal bovine serum (FBS) and 1% of antibiotics (100 U/mL of […] and penicillin) at 37° C. in the incubator of 5% CO2.
NO is an important inflammatory mediator. Excessive production of NO is common in neurons and glial cells of brains with ND^[8]. Griess reagent was configured to evaluate the influence on NO production in order to measure the anti-inflammatory effects of sarcodonin A and its derivative in LPS-induced BV-2 microglia. Before adding the detection reagent, BV-2 cells (2×10^5/mL) were incubated in the 96-well plate and cultured at 37° C. for 24 h. The experimental groups were divided into a control group (DMSO), an LPS-treated group ([…] of LPS) and a compound-treated group (1 μg/mL of LPS+10 μM compound), and then incubation was performed for 24 h. The nitrite concentration in the culture medium was measured by a commercial analysis kit. The main principle was based on the griess method. Supernatant of the BV-2 cells (50 μL) reacted with the griess reagent (50 μL of griess regent I and 50 μL of griess regent II). The absorbance was measured at 540 nm on the Bio-Tek micropore plate reader, and the nitrite concentration was calculated by a nitrite standard curve with sodium nitrite as the standard.
The inhibition rate %=(ALPS−Acompound)/(ALPS−Ablank)×100;

[2] = system: LPS-induced BV-2 cells; test: mRNA levels of M1/M2 biomarkers by qRT-PCR; settings: FIG. 3; for mRNA expression of COX-2 induced by the LPS / mRNA level of IL-10: 10 μM / tested concentration; for mRNA expression of IL-6 induced by the LPS / mRNA level of ARG-1: 10 μM; for mRNA expression of TNF-α induced by the LPS: 1 at 10 μM; for mRNA level of IL-10 / mRNA level of ARG-1: M2 marker
Method: In order to detect the regulation of M1/M2 phenotype switch by 1 and 6, the effects on the mRNA expression of representative M1 and M2 biomarkers in the LPS-stimulated BV-2 cells were evaluated. The cells were incubated into a 6 cm of culture dish (5 mL/dish) at a density of 2×10^5 cfu, and cultured in a constant-temperature incubator of 5% CO2 at 37° C. for 12 h. According to the manufacturer's instructions, total RNA was extracted by Trizol, and concentration and purity thereof were measured by a UV-Vis spectrophotometer. 2 μg of isolated RNA was reversely transcribed into cDNA by Prime Script RTMaster Mix kit. By using a Syr Green quantitative RT-PCR kit, an mRNA level was evaluated by qRT-PCR response. β-actin was used as an internal standard. The primer sequences are as follows (Table 1).

[3] = system: LPS-induced BV-2 cells; test: M1/M2 marker cytokine secretion by ELISA; settings: for production of IL-1β / production of IL-6 / production of IL-10 / production of TNF-α: 3 and 10 μM, 1 h pretreatment then LPS 24 h, effect enhanced as concentration increases, FIG. 4
Method: To further evaluate the role of 1 and 6 in M1 polarization of the LPS-induced microglia, the release of pro-inflammatory M1 cytokines (including TNF-α, IL-6 and IL-1β) and anti-inflammatory M2 cytokines (including IL-10) in the LPS-induced BV-2 cells was detected by ELISA. The BV-2 cells were incubated in a 6-well plate (2 mL/well) at a density of 2×10^5 cfu, cultured in a constant-temperature incubator of 5% CO2 at 37° C. for 24 h, then pretreated with different concentrations of compounds 1 and 6 (3 μM, 10 μM), LPS (1 μg/mL) and DMSO for 1 h, and then induced by the LPS for 24 h. Supernatant of the cell culture medium was collected, and the concentrations of TNF-α, IL-6, IL-10 and IL-1β were measured according to manufacturer's instructions.

[4] = system: LPS-induced BV-2 cells; test: M1/M2 marker protein expression by Western blotting; settings: FIG. 5; for M1/M2 polarization of the LPS-induced BV-2 cells: conclusion from marker expression
Method: The protein expression of iNOS, COX-2(M1 marker) and ARG-1(M2 marker) was analyzed by Western blotting. The BV-2 cells (5×10^5 cfu) cultured in a 6 cm dish were pretreated with 1 or 6 ([…]) respectively for 1 h, and then 1 μg/ml LPS was added for 24 h. The cells were lysed in an ice-cold RIPA lysis buffer with a mixed solution of 10 mM of PMSF and 1% of protein inhibitors. The cytosol lysate was centrifuged at 4° C. at 12000 rpm for 30 minutes. Total protein was isolated from the lysate and their concentration was determined by BCA.
A sample was separated by 8%-12% SDS-PAGE and transferred to a […] PVDF membrane. The membrane was blocked with 5% BSA in TBST (20 mM of Tris-HCl, 150 mM of NaCl, 0.1% of Tween-20) for 1 h at room temperature, and then incubated with appropriate primary antibodies: anti-β-tubulin (1:1000), anti-GAPDH (1:1000), anti-iNOS (1:500), anti-COX-2 (1:1000) and anti-ARG-1 (1:500) at 4° C. overnight. The membrane was washed in the TBST for 3×5 minutes, and then incubated with the secondary antibody bound to appropriate peroxidase (HRP) and left at room temperature for 1 h. The blot was washed in the TBST for 3×5 minutes and exposed to an ECL chemiluminescence reagent. At last, the signal was detected by the Bio-Rad ChemiDoc XRS+ system.

[5] = system: LPS-induced BV-2 microglia; test: MAPK phosphorylation (ERK1/2, JNK, p38 MAPK) by Western blotting; settings: Western blot, 1 h pretreatment then LPS 1 μg/mL 30 min; FIG. 6
Method: Previous studies have shown that the over-activation of MAPK signaling cascade is related to neuroinflammatory reaction^[9-10]. In order to clarify the action mode of 6 in reversing the M1 polarization of the microglia, the effects of 6 on phosphorylation levels of ERK1/2, […] and p38 MAPK in the LPS-induced BV-2 microglia are further studied. BV-2 cells (5×10^5 cfu) cultured in a 6 cm dish are pretreated with compound 1 or 6 ([…]) respectively for 1 h, and then added with the LPS (1 μg/mL) for 30 min. The similar method is used by Western blotting, and the primary antibodies are: […] (1:1000), anti-GAPDH (1:1000), anti-ERK1/2 (1:1000), anti-phosphorylated ERK1/2 (1:1000), anti-p38 MAPK (1:2000), anti-phosphorylated p38 MAPK (1:1000), anti-JNK (1:2000) and anti-phosphorylated JNK (1:1000).

[6] = system: LPS-induced BV-2 cells; test: Nuclear translocation of NF-κB subunit p65 by Western blotting; settings: Western blot of nuclear and cytoplasmic parts
Excerpt: The nuclear translocation of NF-κB subunit p65 as an activation index of NF-κB is examined. The cells were collected in the same way for Western blotting. A extraction kit is configured to isolate and extract nuclear and cytoplasmic parts according to the instructions. The primary antibodies are anti-NF-κB p65 (1:1000), anti-Lamin B1 (1:1000) and anti-GAPDH (1:1000).

[7] = Western blot, 1 h pretreatment then 1 μg/ml LPS 24 h

SMILES	inhibition of NO production (in words) [1]	mRNA expression of COX-2 induced by the LPS ([2]; M1 marker)	mRNA expression of IL-6 induced by the LPS ([2]; M1 marker)	mRNA expression of TNF-α induced by the LPS ([2]; M1 marker)	mRNA level of IL-10 [2]	mRNA level of ARG-1 [2]	production of IL-1β [3]	production of IL-6 [3]	production of IL-10 [3]	production of TNF-α [3]	protein expression of ARG-1 [4, 7]	protein expression of LPS-induced iNOS [4, 7]	M1/M2 polarization of the LPS-induced BV-2 cells [4]	further results
CC(=O)OCC(C)C1=C2C3=CC=C(C=O)CC(OC(C)=O)C3(C)CCC2(C)CC1 (centres unmarked) [Compound 7]	strong inhibitory effect similar to that of 6	–	–	–	–	–	–	–	–	–	–	–	–	–
CC(COC(=O)c1ccccc1Cl)C1=C2C3=CC=C(C=O)CC(O)C3(C)CCC2(C)CC1 (centres unmarked) [Compound 3]	higher inhibitory activity	–	–	–	–	–	–	–	–	–	–	–	–	–
CC(COC(=O)c1ccccc1Br)C1=C2C3=CC=C(C=O)CC(O)C3(C)CCC2(C)CC1 (centres unmarked) [Compound 4]	higher inhibitory activity; also recorded: highest inhibitory activity in o-halogen-substituted 19-O-benzoyl derivatives	–	–	–	–	–	–	–	–	–	–	–	–	–
CC(CO)C1=C2C3=CC=C(C=O)C[C@H](O)[C@]3(C)CC[C@@]2(C)CC1 (some centres unmarked) [Compound 1, sarcodonin A]	can inhibit	does not affect	inhibits	inhibits	does not affect	enhance	inhibitory effect	inhibitory effect	promoting effect	inhibitory effect	promotes	inhibits	inhibit the M1 polarization and enhance M2 polarization	–
CC(COC(=O)c1ccc(Br)cc1)C1=C2C3=CC=C(C=O)CC(O)C3(C)CCC2(C)CC1 (centres unmarked) [Compound 6]	higher inhibitory activity; also recorded: strongest activity	inhibits	inhibits	inhibits	promotes	promotes	inhibitory effect	inhibitory effect	promoting effect	inhibitory effect	more obvious promoting effect	more obvious inhibitory effect	inhibit the M1 polarization and enhance M2 polarization	inhibitory activity on NO production (inhibition rate) ([1]; compared with the LPS control group): 55%; mRNA expression of IL-1β induced by the LPS ([2]; M1 marker): inhibits; mRNA expression of iNOS induced by the LPS ([2]; M1 marker): inhibits; comparison of effect on cytokine production at the same concentration ([3]; IL-6, IL-1β, TNF-α, IL-10, FIG. 4): more effective than 1; protein expression of COX-2 [4, 7]: more obvious inhibitory effect; activation (phosphorylation) of ERK1/2 induced by the LPS [5]: significantly inhibits; activation (phosphorylation) of INK induced by the LPS [5]: significantly inhibits; phosphorylation of p38 MAPK [5]: little effect; LPS-stimulated nuclear translocation of NF-κB p65 [6]: significantly inhibits
